CC(=O)Oc1ccccc1C(=O)O
Settings | solubility (mole fraction)
in acetone, 281.9 K | 0.061
in acetone, 290.6 K | 0.075
in acetone, 297.9 K | 0.088
in acetone, 304.4 K | 0.101
in acetone, 310.6 K | 0.114
in acetone, 315.3 K | 0.127
in acetone, 319.8 K | 0.139
in acetone, 323.3 K | 0.151
in acetone, 326.3 K | 0.162
in ethanol, 276.3 K | 0.025
in ethanol, 291.9 K | 0.049
in ethanol, 302.4 K | 0.071
in ethanol, 310 K | 0.093
in ethanol, 316.5 K | 0.113
in ethanol, 321.5 K | 0.133
in ethanol, 325.9 K | 0.152
in ethanol, 330.4 K | 0.17
in ethanol, 333.4 K | 0.187
in ethanol, 336.6 K | 0.204
in isopropanol, 281.6 K | 0.013
in isopropanol, 291.8 K | 0.032
in isopropanol, 304.1 K | 0.063
in isopropanol, 312.9 K | 0.091
in isopropanol, 316.1 K | 0.102
in isopropanol, 320.4 K | 0.118
in isopropanol, 322.7 K | 0.128
in isopropanol, 325.8 K | 0.143
in isopropanol, 327.7 K | 0.153
in isopropanol, 330.2 K | 0.167
in propylene glycol, 295.7 K | 0.017
in propylene glycol, 301.1 K | 0.025
in propylene glycol, 305.1 K | 0.033
in propylene glycol, 308.2 K | 0.041
in propylene glycol, 313.6 K | 0.056
in propylene glycol, 318.3 K | 0.071
in propylene glycol, 323.7 K | 0.092
in propylene glycol, 327.9 K | 0.112
in propylene glycol, 330.7 K | 0.126
in propylene glycol, 333.9 K | 0.145

Source: BigSolDB 2.1
